Legend:
PC-3 cells = experiment: MTT assay anticancer activity, PC-3; type: cell-based; conditions: Homo sapiens, PC-3, 5 µM, mean ± SEM, read-out: growth inhibition percentage of PC-3
From the text: MTT method was done as described above.

CCRF-CEM = experiment: NCI anticancer screening, Leukemia CCRF-CEM; type: cell-based; conditions: Homo sapiens, read-out: % Growth Inhibition (GI %)
Summary of the method: (§1)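 Data derive from DTP's established NCI-60 procedure applied to an organic compound on human tumor cell lines.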

HL-60(TB) = experiment: NCI anticancer screening, Leukemia HL-60(TB); type: cell-based; conditions: Homo sapiens, read-out: % Growth Inhibition (GI %)
Summary of the method: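 NCI DTP, standard 60-line human tumor screen (organic compounds).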

K-562 = experiment: NCI anticancer screening, Leukemia K-562; type: cell-based; conditions: Homo sapiens, K562; K-562, 10 μM; read-out: % Growth Inhibition (GI %)
Summary of the method: as §1

MOLT-4 = experiment: NCI anticancer screening, Leukemia MOLT-4; type: cell-based; conditions: Homo sapiens; MOLT-4, 10 μM; read-out: % Growth Inhibition (GI %)
Summary of the method: as §1

SR = experiment: NCI anticancer screening, Leukemia SR; type: cell-based; conditions: Homo sapiens, read-out: % Growth Inhibition (GI %)
Summary of the method: as §1

A549/ATCC = experiment: NCI anticancer screening, Non-Small Cell Lung Cancer A549/ATCC; type: cell-based; conditions: Homo sapiens, read-out: % Growth Inhibition (GI %)
Summary of the method: as §1

EKVX = experiment: NCI anticancer screening, Non-Small Cell Lung Cancer EKVX; type: cell-based; conditions: Homo sapiens, read-out: % Growth Inhibition (GI %)
Summary of the method: as §1

HOP-62 = experiment: NCI anticancer screening, Non-Small Cell Lung Cancer HOP-62; type: cell-based; conditions: Homo sapiens; HOP-62, 10 μM; read-out: % Growth Inhibition (GI %)
Summary of the method: as §1

HOP-92 = experiment: NCI anticancer screening, Non-Small Cell Lung Cancer HOP-92; type: cell-based; conditions: Homo sapiens; HOP-92, 10 μM; read-out: % Growth Inhibition (GI %)
Summary of the method: as §1

NCI-H322M = experiment: NCI anticancer screening, Non-Small Cell Lung Cancer NCI-H322M; type: cell-based; conditions: Homo sapiens, read-out: % Growth Inhibition (GI %)
Summary of the method: as §1

NCI-H460 = experiment: NCI anticancer screening, Non-Small Cell Lung Cancer NCI-H460; type: cell-based; conditions: Homo sapiens; NCI-H460, 10 μM; read-out: % Growth Inhibition (GI %)
Summary of the method: as §1

NCI-H522 = experiment: NCI anticancer screening, Non-Small Cell Lung Cancer NCI-H522; type: cell-based; conditions: Homo sapiens; NCI-H522, 10 μM; read-out: % Growth Inhibition (GI %)
Summary of the method: as §1

HCC-2998 = experiment: NCI anticancer screening, Colon Cancer HCC-2998; type: cell-based; conditions: Homo sapiens; HCC-2998, 10 μM; read-out: % Growth Inhibition (GI %)
Summary of the method: as §1

HCT-15 = experiment: NCI anticancer screening, Colon Cancer HCT-15; type: cell-based; conditions: Homo sapiens; HCT-15, 10 μM; read-out: % Growth Inhibition (GI %)
Summary of the method: as §1

KM12 = experiment: NCI anticancer screening, Colon Cancer KM12; type: cell-based; conditions: Homo sapiens; KM12, 10 μM; read-out: % Growth Inhibition (GI %)
Summary of the method: as §1

SW-620 = experiment: NCI anticancer screening, Colon Cancer SW-620; type: cell-based; conditions: Homo sapiens; SW-620, 10 μM; read-out: % Growth Inhibition (GI %)
Summary of the method: as §1

SF-268 = experiment: NCI anticancer screening, CNS Cancer SF-268; type: cell-based; conditions: Homo sapiens; SF-268, 10 μM; read-out: % Growth Inhibition (GI %)
Summary of the method: as §1

SF-295 = experiment: NCI anticancer screening, CNS Cancer SF-295; type: cell-based; conditions: Homo sapiens; SF-295, 10 μM; read-out: % Growth Inhibition (GI %)
Summary of the method: as §1

SNB-19 = experiment: NCI anticancer screening, CNS Cancer SNB-19; type: cell-based; conditions: Homo sapiens; SNB-19, 10 μM; read-out: % Growth Inhibition (GI %)
Summary of the method: as §1

SNB-75 = experiment: NCI anticancer screening, CNS Cancer SNB-75; type: cell-based; conditions: Homo sapiens; SNB-75, 10 μM; read-out: % Growth Inhibition (GI %)
Summary of the method: as §1

U251 = experiment: NCI anticancer screening, CNS Cancer U251; type: cell-based; conditions: Homo sapiens, U-251; U251, 10 μM; read-out: % Growth Inhibition (GI %)
Summary of the method: as §1

M14 = experiment: NCI anticancer screening, Melanoma M14; type: cell-based; conditions: Homo sapiens; M14, 10 μM; read-out: % Growth Inhibition (GI %)
Summary of the method: as §1

SK-MEL-2 = experiment: NCI anticancer screening, Melanoma SK-MEL-2; type: cell-based; conditions: Homo sapiens; SK-MEL-2, 10 μM; read-out: % Growth Inhibition (GI %)
Summary of the method: as §1

SK-MEL-28 = experiment: NCI anticancer screening, Melanoma SK-MEL-28; type: cell-based; conditions: Homo sapiens; SK-MEL-28, 10 μM; read-out: % Growth Inhibition (GI %)
Summary of the method: as §1

UACC-62 = experiment: NCI anticancer screening, Melanoma UACC-62; type: cell-based; conditions: Homo sapiens; UACC-62, 10 μM; read-out: % Growth Inhibition (GI %)
Summary of the method: as §1

OVCAR-3 = experiment: NCI anticancer screening, Ovarian Cancer OVCAR-3; type: cell-based; conditions: Homo sapiens; OVCAR-3, 10 μM; read-out: % Growth Inhibition (GI %)
Summary of the method: as §1

OVCAR-5 = experiment: NCI anticancer screening, Ovarian Cancer OVCAR-5; type: cell-based; conditions: Homo sapiens; OVCAR-5, 10 μM; read-out: % Growth Inhibition (GI %)
Summary of the method: as §1

786-0 = experiment: NCI anticancer screening, Renal Cancer 786-0; type: cell-based; conditions: Homo sapiens; 786-0, 10 μM; read-out: % Growth Inhibition (GI %)
Summary of the method: as §1

CAKI-1 = experiment: NCI anticancer screening, Renal Cancer CAKI-1; type: cell-based; conditions: Homo sapiens; CAKI-1, 10 μM; read-out: % Growth Inhibition (GI %)
Summary of the method: as §1

SN12C = experiment: NCI anticancer screening, Renal Cancer SN12C; type: cell-based; conditions: Homo sapiens, read-out: % Growth Inhibition (GI %)
Summary of the method: as §1

TK-10 = experiment: NCI anticancer screening, Renal Cancer TK-10; type: cell-based; conditions: Homo sapiens; TK-10, 10 μM; read-out: % Growth Inhibition (GI %)
Summary of the method: as §1

MCF7 = experiment: NCI anticancer screening, Breast Cancer MCF7; type: cell-based; conditions: Homo sapiens; MCF7, 10 μM; read-out: % Growth Inhibition (GI %)
Summary of the method: as §1

BT-549 = experiment: NCI anticancer screening, Breast Cancer BT-549; type: cell-based; conditions: Homo sapiens; BT-549, 10 μM; read-out: % Growth Inhibition (GI %)
Summary of the method: as §1

T-47D = experiment: NCI anticancer screening, Breast Cancer T-47D; type: cell-based; conditions: Homo sapiens, T47D, read-out: % Growth Inhibition (GI %)
Summary of the method: as §1

MDA-MB-468 = experiment: NCI anticancer screening, Breast Cancer MDA-MB-468; type: cell-based; conditions: Homo sapiens, read-out: % Growth Inhibition (GI %)
Summary of the method: as §1

MDA-MB 231 cells = conditions: for inhibition: 5 µM

SMILES | inhibition at 5 µM (PC-3 cells) [%] | inhibition at 10 µM (CCRF-CEM) [%] | inhibition at 10 µM (HL-60(TB)) [%] | inhibition at 10 µM (K-562) [%] | inhibition at 10 µM (MOLT-4) [%] | inhibition at 10 µM (SR) [%] | inhibition at 10 µM (A549/ATCC) [%] | inhibition at 10 µM (EKVX) [%] | inhibition at 10 µM (HOP-62) [%] | inhibition at 10 µM (HOP-92) [%] | inhibition at 10 µM (NCI-H322M) [%] | inhibition at 10 µM (NCI-H460) [%] | inhibition at 10 µM (NCI-H522) [%] | inhibition at 10 µM (HCC-2998) [%] | inhibition at 10 µM (HCT-15) [%] | inhibition at 10 µM (KM12) [%] | inhibition at 10 µM (SW-620) [%] | inhibition at 10 µM (SF-268) [%] | inhibition at 10 µM (SF-295) [%] | inhibition at 10 µM (SNB-19) [%] | further results
CN(C)c1ccc([C@@H]2C3CSCN3[C@]3(C(=O)Nc4ccccc43)[C@H]2C(=O)c2nc3ccccc3[nH]2)cc1 (stereo partly drawn) [Compound 6k, (3S,6′R)-6'-(1H-Benzo [d]imidazole-2-carbonyl)-7'-(4-(dimethylamino)phenyl)-3′,6′,7′,7a′-tetrahydro-1′H-spiro [indoline-3.5′-pyrrolo [1,2-c]thiazol]-2-one] | 41.6 ± 0.729 | 99.9 | 99.5 | 92.2 | 85.6 | 84.3 | 94.2 | 91.4 | 95.7 | 104 | 99.8 | 102 | 87.9 | 102 | 99.1 | 95.7 | 100 | 92.1 | 103 | 91.7 | inhibition at 10 µM (SNB-75): 88.3%; inhibition at 10 µM (U251): 103%; inhibition at 10 µM (M14): 103%; inhibition at 10 µM (SK-MEL-2): 106%; inhibition at 10 µM (SK-MEL-28): 96.1%; inhibition at 10 µM (UACC-62): 84.4%; inhibition at 10 µM (OVCAR-3): 103%; inhibition at 10 µM (OVCAR-5): 95.6%; inhibition at 10 µM (786-0): 103%; inhibition at 10 µM (CAKI-1): 85.8%; inhibition at 10 µM (SN12C): 94%; inhibition at 10 µM (TK-10): 111%; inhibition at 10 µM (MCF7): 93.6%; inhibition at 10 µM (BT-549): 108%; inhibition at 10 µM (T-47D): 83%; inhibition at 10 µM (MDA-MB-468): 99.8%; melting point: 178 to 180 °C; IC50 (MDA-MB 231 cells): 4 ± 0.249 µM; inhibition (MDA-MB 231 cells): 37.6 ± 2.61%
O=C(c1nc2ccccc2[nH]1)[C@H]1[C@H](c2ccc(Br)cc2)C2CSCN2[C@]12C(=O)Nc1ccccc12 (stereo partly drawn) [Compound 6l, (3S,6′R)-6'-(1H-Benzo [d]imidazole-2-carbonyl)-7'-(4-bromophenyl)-3′,6′,7′,7a′-tetrahydro-1′H-spiro [indoline-3.5′-pyrrolo [1,2-c]thiazol]-2-one] | 55.1 ± 1.98 | 88.2 | 89.9 | 74.5 | 56.3 | 54.1 | 73 | 68.8 | 88.7 | 96.9 | 89.9 | 66.2 | 91.2 | 79.4 | 67 | 59.8 | 80.7 | 71.5 | 63.9 | 67 | inhibition at 10 µM (SNB-75): 68%; inhibition at 10 µM (U251): 75.8%; inhibition at 10 µM (M14): 68.6%; inhibition at 10 µM (SK-MEL-2): 107%; inhibition at 10 µM (SK-MEL-28): 84.8%; inhibition at 10 µM (UACC-62): 70.5%; inhibition at 10 µM (OVCAR-3): 79.8%; inhibition at 10 µM (OVCAR-5): 95.9%; inhibition at 10 µM (786-0): 91.5%; inhibition at 10 µM (CAKI-1): 60.3%; inhibition at 10 µM (SN12C): 82.8%; inhibition at 10 µM (TK-10): 145%; inhibition at 10 µM (MCF7): 60.6%; inhibition at 10 µM (BT-549): 90.2%; inhibition at 10 µM (T-47D): 54.7%; inhibition at 10 µM (MDA-MB-468): 87.2%; melting point: 172 to 174 °C; IC50 (MDA-MB 231 cells): 4.51 ± 0.203 µM; inhibition (MDA-MB 231 cells): 53.59 ± 0.109%

— PMC11033320, “Activation of p53 signaling and regression of breast and prostate carcinoma cells by spirooxindole-benzimidazole small molecules” (Frontiers in Pharmacology, 2024)
